Data published in PMC10653547, “Synergistic effect of two antimicrobial peptides, BP203 and MAP-0403 J-2 with conventional antibiotics against colistin-resistant Escherichia coli and Klebsiella pneumoniae clinical isolates” (PLOS ONE, 2023).
≈ marks a conversion by molar mass, not a printed value. Positions of bridges follow the written chain, without caps; N, C: chain ends. Non-standard residues stand in square brackets, D forms with d. Residues, ends and D or L forms follow the SMILES beside them. *: point of attachment. X1 = CC[C@H](C)CCCCC(=O)*; Dab = NCC[C@H](N)C(=O)O

Key:
[1] = system: colistin-resistant E. coli clinical isolates; assay: Colistin susceptibility by broth microdilution (CLSI); assay type: cell-based, Escherichia coli; conditions: for COL MIC: broth microdilution
Description: (§1) Ten non-duplicate clinical isolates of colistin-resistant E. coli (EC) and ten non-duplicate clinical isolates of colistin-resistant K. pneumoniae (KP) were obtained from the bacterial repository of the Division of Infectious Diseases and Tropical Medicine, Department of Medicine, Faculty of Medicine Siriraj Hospital, Mahidol University. The species identification was conducted through standard biochemical tests. Antimicrobial susceptibility testing was carried out using the disk diffusion method following CLSI guidelines. Additionally, the assessment of colistin resistance in all isolates was performed by broth microdilution following CLSI recommendations. […] The amino acid sequences of BP203 and MAP-0403 J-2 were retrieved from previous studies. These peptides are BP100 and MAP-0403 analogs, respectively. […] Antibiotic disks and defibrinated sheep blood were obtained from Oxoid (Basingstoke, UK). All culture media were purchased from Becton Dickinson (Frankin Lakes, NJ, USA). All chemicals were obtained from Sigma-Aldrich (St. Louis, MO, USA).

[2] = system: colistin-resistant K. pneumoniae clinical isolates; assay: Checkerboard assay for synergy testing; assay type: cell-based, Klebsiella pneumoniae
Description: (§2) The synergistic activities of various two-antimicrobial combinations against colistin-resistant E. coli and K. pneumoniae isolates were evaluated using the checkerboard assay, which was performed in 96-well plates. […] Two-fold serial dilutions of peptides and antibiotics were independently prepared in CAMHB. Afterward, a mixture of different concentrations of the antibiotics and peptides was added to the wells of the microplates. Antibiotics and peptides were also dispended alone in the first row and the first column, respectively. Bacterial inoculum was added to the 96-well plate to achieve a final concentration of 5 × 10^5 CFU/mL. Then, plates were incubated at 37 °C for 20–24 h. MICs were recorded as the minimum concentration of antimicrobial agents without bacterial growth. The interaction between the antimicrobials was determined by calculating the fractional inhibitory concentration index (FICI) according to the formula: FICI = FIC(drug A) + FIC(drug B), where FIC = the MIC of the drug when in the combination/MIC of drug tested individually.

[3] = system: colistin-resistant E. coli clinical isolates; assay: Checkerboard assay for synergy testing; assay type: cell-based, Escherichia coli
Description: as §2

[4] = system: colistin-resistant K. pneumoniae clinical isolates; assay: Colistin susceptibility by broth microdilution (CLSI); assay type: cell-based, Klebsiella pneumoniae; conditions: for COL MIC: broth microdilution
Description: as §1

[5] = system: MRC-5 (CCL-171) normal lung fibroblast cells; assay: Cytotoxicity assay using MTT; assay type: cell-based, human; conditions: 24 h exposure
Description: MRC-5 (CCL-171) cell line, a representative of normal lung fibroblast cells, was used to investigate the cytotoxic effects of two AMPs, BP203 and MAP-0403 J-2. The cells were grown in Dulbecco’s Modified Eagle Medium (DMEM, Cytiva Life Sciences, Marlborough, MA, USA), supplemented with 10% fetal bovine serum (FBS), 1% penicillin (10,000 U/mL) and streptomycin (10,000 μg/mL) (Gibco, Waltham, MA, USA). 2×10^4 cells were seeded into each well of a 96-well plate and allowed to adhere for 24 h. Then, these cells were subjected to exposure to a medium containing a prepared two-fold serial dilution of BP203 or MAP-0403 J-2. […] 3-(4,5-Dimethylthiazol-2-yl)-2,5-Diphenyltetrazolium Bromide (MTT) was introduced into each well to achieve a concentration of 0.5 mg/mL followed by 4 h. incubation. Subsequently, formazan crystals were dissolved through the addition of 100 μL of a solubilizing solution composed of 10% SDS in 0.1 N HCl and the developed color was measured using a microtiter plate reader at an optical density (OD) of 570 nm. Cell viability was calculated as follows: (ODsample/ODcontrol) × 100.

[6] = checkerboard BP203 x colistin, KP-01
[7] = checkerboard BP203 x colistin, KP-02
[8] = checkerboard BP203 x colistin, KP-03
[9] = checkerboard BP203 x colistin, KP-04
[10] = checkerboard BP203 x colistin, KP-05
[11] = checkerboard BP203 x colistin, KP-06
[12] = checkerboard BP203 x colistin, KP-07
[13] = checkerboard BP203 x colistin, KP-08
[14] = checkerboard BP203 x colistin, KP-09
[15] = checkerboard BP203 x colistin, KP-10
[16] = checkerboard MAP-0403 J-2 x colistin, KP-01
[17] = checkerboard MAP-0403 J-2 x colistin, KP-02
[18] = checkerboard MAP-0403 J-2 x colistin, KP-03
[19] = checkerboard MAP-0403 J-2 x colistin, KP-04
[20] = checkerboard MAP-0403 J-2 x colistin, KP-05
[21] = checkerboard MAP-0403 J-2 x colistin, KP-06
[22] = checkerboard MAP-0403 J-2 x colistin, KP-07
[23] = checkerboard MAP-0403 J-2 x colistin, KP-08
[24] = checkerboard MAP-0403 J-2 x colistin, KP-09
[25] = checkerboard MAP-0403 J-2 x colistin, KP-10
[26] = checkerboard BP203 x colistin, EC-01
[27] = checkerboard BP203 x colistin, EC-02
[28] = checkerboard BP203 x colistin, EC-03
[29] = checkerboard BP203 x colistin, EC-04
[30] = checkerboard BP203 x colistin, EC-05
[31] = checkerboard BP203 x colistin, EC-06
[32] = checkerboard BP203 x colistin, EC-07
[33] = checkerboard BP203 x colistin, EC-08
[34] = checkerboard BP203 x colistin, EC-09
[35] = checkerboard BP203 x colistin, EC-10
[36] = checkerboard MAP-0403 J-2 x colistin, EC-01
[37] = checkerboard MAP-0403 J-2 x colistin, EC-02
[38] = checkerboard MAP-0403 J-2 x colistin, EC-03
[39] = checkerboard MAP-0403 J-2 x colistin, EC-04
[40] = checkerboard MAP-0403 J-2 x colistin, EC-05
[41] = checkerboard MAP-0403 J-2 x colistin, EC-06
[42] = checkerboard MAP-0403 J-2 x colistin, EC-07
[43] = checkerboard MAP-0403 J-2 x colistin, EC-08
[44] = checkerboard MAP-0403 J-2 x colistin, EC-09
[45] = checkerboard MAP-0403 J-2 x colistin, EC-10

CC[C@H](C)CCCCC(=O)N[C@@H](CCN)C(=O)N[C@H](C(=O)N[C@@H](CCN)C(=O)N[C@H]1CCNC(=O)[C@H]([C@@H](C)O)NC(=O)[C@H](CCN)NC(=O)[C@H](CCN)NC(=O)[C@H](CC(C)C)NC(=O)[C@@H](CC(C)C)NC(=O)[C@H](CCN)NC1=O)[C@@H](C)O [COL, colistin] (X1-[Dab]T[Dab][Dab][Dab][dL]L[Dab][Dab]T; lactam 4-C)
%Resistance [1]: 100% | COL MIC ([1]; EC-01): 4 µg/mL | COL MIC ([1]; EC-02): 4 µg/mL | COL MIC ([1]; EC-03): 4 µg/mL | COL MIC ([1]; EC-04): 4 µg/mL | COL MIC ([1]; EC-05): 4 µg/mL | COL MIC ([1]; EC-06): 4 µg/mL | COL MIC ([1]; EC-07): 8 µg/mL | COL MIC ([1]; EC-08): 8 µg/mL | COL MIC ([1]; EC-09): 16 µg/mL | COL MIC ([1]; EC-10): 16 µg/mL | MICs, all isolates ([1]; all E. coli isolates): ≥ 4 µg/mL | MIC alone [2, 6]: 4 µg/mL | MIC combination [2, 6]: 4 µg/mL | MIC alone [2, 7]: 8 µg/mL | MIC combination [2, 7]: 8 µg/mL | MIC alone [2, 8]: 32 µg/mL | MIC combination [2, 8]: 32 µg/mL | MIC alone [2, 9]: 16 µg/mL | MIC combination [2, 9]: 16 µg/mL | MIC alone [2, 10]: 16 µg/mL | MIC combination [2, 10]: 16 µg/mL | MIC alone [2, 11]: 16 µg/mL | MIC combination [2, 11]: 16 µg/mL | MIC alone [2, 12]: 64 µg/mL | MIC combination [2, 12]: 0.5 µg/mL | MIC alone [2, 13]: 128 µg/mL | MIC combination [2, 13]: 128 µg/mL | MIC alone [2, 14]: 32 µg/mL | MIC combination [2, 14]: 16 µg/mL | MIC alone [2, 15]: 128 µg/mL | MIC combination [2, 15]: 64 µg/mL | MIC alone [2, 16]: 4 µg/mL | MIC combination [2, 16]: 4 µg/mL | MIC alone [2, 17]: 8 µg/mL | MIC combination [2, 17]: 8 µg/mL | MIC alone [2, 18]: 32 µg/mL | MIC combination [2, 18]: 32 µg/mL | MIC alone [2, 19]: 16 µg/mL | MIC combination [2, 19]: 16 µg/mL | MIC alone [2, 20]: 16 µg/mL | MIC combination [2, 20]: 16 µg/mL | MIC alone [2, 21]: 16 µg/mL | MIC combination [2, 21]: 16 µg/mL | MIC alone [2, 22]: 64 µg/mL | MIC combination [2, 22]: 128 µg/mL | MIC alone [2, 23]: 128 µg/mL | MIC combination [2, 23]: 128 µg/mL | MIC alone [2, 24]: 32 µg/mL | MIC combination [2, 24]: 32 µg/mL | MIC alone [2, 25]: 128 µg/mL | MIC combination [2, 25]: 64 µg/mL | MIC alone [3, 26]: 4 µg/mL | MIC combination [3, 26]: 2 µg/mL | MIC alone [3, 27]: 4 µg/mL | MIC combination [3, 27]: 2 µg/mL | MIC alone [3, 28]: 4 µg/mL | MIC combination [3, 28]: 1 µg/mL | MIC alone [3, 29]: 4 µg/mL | MIC combination [3, 29]: 2 µg/mL | MIC alone [3, 30]: 4 µg/mL | MIC combination [3, 30]: 2 µg/mL | MIC alone [3, 31]: 4 µg/mL | MIC combination [3, 31]: 4 µg/mL | MIC alone [3, 32]: 8 µg/mL | MIC combination [3, 32]: 4 µg/mL | MIC alone [3, 33]: 8 µg/mL | MIC combination [3, 33]: 8 µg/mL | MIC alone [3, 34]: 16 µg/mL | MIC combination [3, 34]: 8 µg/mL | MIC alone [3, 35]: 16 µg/mL | MIC combination [3, 35]: 2 µg/mL | MIC alone [3, 36]: 4 µg/mL | MIC combination [3, 36]: 0.5 µg/mL | MIC alone [3, 37]: 4 µg/mL | MIC combination [3, 37]: 1 µg/mL | MIC alone [3, 38]: 4 µg/mL | MIC combination [3, 38]: 0.5 µg/mL | MIC alone [3, 39]: 4 µg/mL | MIC combination [3, 39]: 2 µg/mL | MIC alone [3, 40]: 4 µg/mL | MIC combination [3, 40]: 1 µg/mL | MIC alone [3, 41]: 4 µg/mL | MIC combination [3, 41]: 2 µg/mL | MIC alone [3, 42]: 8 µg/mL | MIC combination [3, 42]: 2 µg/mL | MIC alone [3, 43]: 8 µg/mL | MIC combination [3, 43]: 2 µg/mL | MIC alone [3, 44]: 16 µg/mL | MIC combination [3, 44]: 4 µg/mL | MIC alone [3, 45]: 16 µg/mL | MIC combination [3, 45]: 4 µg/mL | %Resistance [4]: 100% | COL MIC ([4]; KP-01): 4 µg/mL | COL MIC ([4]; KP-02): 8 µg/mL | COL MIC ([4]; KP-03): 32 µg/mL | COL MIC ([4]; KP-04): 16 µg/mL | COL MIC ([4]; KP-05): 16 µg/mL | COL MIC ([4]; KP-06): 16 µg/mL | COL MIC ([4]; KP-07): 64 µg/mL | COL MIC ([4]; KP-08): 128 µg/mL | COL MIC ([4]; KP-09): 32 µg/mL | COL MIC ([4]; KP-10): 128 µg/mL | MICs, all isolates ([4]; all K. pneumoniae isolates): ≥ 4 µg/mL

CC[C@H](C)[C@H](NC(=O)CN)C(=O)NCC(=O)N[C@@H](C)C(=O)N[C@H](C(=O)N[C@@H](CC(C)C)C(=O)N[C@@H](CCCCN)C(=O)N[C@H](C(=O)N[C@@H](CC(C)C)C(=O)N[C@H](C(=O)N[C@H](C(=O)NCC(=O)N[C@@H](CC(C)C)C(=O)N1CCC[C@H]1C(=O)N[C@@H](C)C(=O)N[C@@H](CC(C)C)C(=O)N[C@H](C(=O)N[C@@H](CO)C(=O)N[C@@H](Cc1c[nH]c2ccccc12)C(=O)N[C@H](C(=O)N[C@@H](CCCCN)C(=O)N[C@@H](CCCNC(=N)N)C(=O)N[C@@H](CCCCN)C(=O)N[C@@H](CCCNC(=N)N)C(=O)N[C@@H](CCC(N)=O)C(=O)N[C@@H](CCC(N)=O)C(N)=O)[C@@H](C)CC)[C@@H](C)CC)[C@@H](C)O)[C@@H](C)O)C(C)C)C(C)C [melittin]
IC50 [5]: 16.13 µg/mL (≈ 5.67 µM)
